Values quoted from earlier work, collected in patent US20140106010A1, “Blend of Green and Black Extracts for the Promotion of Health Benefits” (Kemin Industries, Inc., priority 2012, published 2014).

Legend:
[1] = test system: prostate tissue of C57BL/6 mice; details: 2 weeks decaffeinated black tea extract at 50 mg/g diet
ERK1 and ERK2 = details: TRAMP mice, 0.06% EGCG in drinking water, dorsolateral and ventral prostate

greater relative absorption into the prostate compared to EGCG [1] | Molecule | decreased phosphorylation of ERK1 and ERK2 (ERK1 and ERK2)
70% | O=c1c(O)cc([C@H]2Oc3cc(O)cc(O)c3C[C@H]2O)cc2c([C@H]3Oc4cc(O)cc(O)c4C[C@H]3O)cc(O)c(O)c12 [theaflavin] | 
 | epigallocatechin-3-gallate [EGCG] | about 50%
